Reference: PubChem BioAssay (NCI)
Several values for one entry are separate records, joined by “and”; a condition that tells them apart may be missing. Identical values can stand only once.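 Tested at 5 concentrations; 48 h exposure; 96-well plates; endpoints linearly interpolated, else capped at highest concentration. Abbreviation: GI50, concentration required for 50% inhibition of growth. TGI: concentration producing complete growth inhibition.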

Experiments:
Assay in all cases: NCI tumour cell line growth inhibition, 48 h
HCT-116 colon = test system: HCT-116 colon
HL-60(TB) leukemia = test system: HL-60(TB) leukemia
HOP-62 NSCLC = test system: HOP-62 NSCLC
HS 578T breast = test system: HS 578T breast
LOX IMVI melanoma = test system: LOX IMVI melanoma
NCI-H460 lung = test system: NCI-H460 lung
OVCAR-8 ovarian = test system: OVCAR-8 ovarian
SK-MEL-28 melanoma = test system: SK-MEL-28 melanoma
SK-MEL-5 melanoma = test system: SK-MEL-5 melanoma
SR leukemia = test system: SR leukemia

| SMILES | GI50 (HCT-116 colon) [µM] | TGI (HCT-116 colon) | GI50 (HL-60(TB) leukemia) | TGI (HL-60(TB) leukemia) | GI50 (HOP-62 NSCLC) [µM] | TGI (HOP-62 NSCLC) | GI50 (HS 578T breast) [µM] | TGI (HS 578T breast) [µM] | GI50 (LOX IMVI melanoma) [µM] | TGI (LOX IMVI melanoma) | GI50 (NCI-H460 lung) [µM] | TGI (NCI-H460 lung) | GI50 (OVCAR-8 ovarian) [µM] | TGI (OVCAR-8 ovarian) | TGI (SK-MEL-28 melanoma) | GI50 (SK-MEL-5 melanoma) | TGI (SK-MEL-5 melanoma) | GI50 (SR leukemia) [µM] | GI50 (SK-MEL-28 melanoma) [µM] | TGI (SR leukemia) |
| --- | --- | --- | --- | --- | --- | --- | --- | --- | --- | --- | --- | --- | --- | --- | --- | --- | --- | --- | --- | --- |
| COc1ccc2c(c1)C(=O)c1c-2n(CCCN2CCOCC2)c(=O)c2cc([N+](=O)[O-])ccc12 | < 0.01 | 0.0454 µM | < 0.0193 µM | 4.03 µM | < 0.01 | 0.364 µM | 0.719 | 22.3 | < 0.01 | 0.0127 µM | < 0.01 | 0.069 µM | < 0.01 | > 50.6 µM | 16.2 µM | < 0.01 µM | < 0.01 µM | < 0.01 |  |  |
| Oc1ccc(CN(Cc2ccc(C(F)(F)F)cc2)Cc2ccc(O)c3ncccc23)c2cccnc12 | < 0.01 | > 100 µM | 0.0239 µM |  | 0.0319 | > 34.6 µM | 0.0438 | > 100 | 0.0381 | 15.1 µM | < 0.01 | 0.111 µM | < 0.0142 | > 100 µM | > 100 µM | 0.0278 µM | 0.16 µM | 0.04 | 0.341 | > 100 µM |
| CNCCOC(=O)/C=C1/CCC2C(C(O)CC3C(C)(C(=O)OC)CCCC23C)C1C (stereo unspecified) | 0.0158 | 0.0311 µM | 0.0261 µM | 0.0638 µM | 0.013 | 0.0259 µM | < 0.01 | 0.298 | 0.0192 | 0.042 µM | < 0.01 | 0.019 µM | 0.018 | 0.0331 µM | 0.0758 µM | 0.0163 µM | 0.0321 µM | 0.0198 | 0.029 | 0.0553 µM |
| Cc1cc(NC(=O)NC(=O)c2ccccc2NC(=O)CN)ccc1Oc1ncc(Br)cn1 | 0.43 | 26.1 µM and > 100 µM | 0.111 µM and 0.0249 µM | 0.865 µM and 0.175 µM | 0.47 | 4.18 µM and 22.3 µM |  | 4.69 | 0.624 | 34.1 µM and > 100 µM | 0.405 | 44.5 µM and 11.8 µM | 0.65 | 45.7 µM and 17.8 µM | 41.2 µM and > 100 µM | 0.2 µM and 0.0445 µM | 43.9 µM and 26.8 µM | 0.0302 | 0.0822 | 55.8 µM and > 100 µM |
| COc1ccc(-c2csc3c2-n2cccc2C3=O)cc1O | 0.0271 | 17 µM | 0.0163 µM | 0.0955 µM | 0.0578 | > 100 µM | < 0.0165 | > 100 | < 0.0182 | > 100 µM | 0.0375 | 13.1 µM | 0.0281 | > 100 µM |  | 0.0326 µM | 0.237 µM | < 0.01 |  | 31.9 µM |
| COc1cc2c(cc1OCCCN1CCN(c3cc(=O)oc4c(C)c(OC)ccc34)CC1)N=C[C@@H]1CCCN1C2=O | 1.16 | 8.94 µM | 0.456 µM | 3.83 µM | 1.64 | 10.3 µM | 2.35 | 15.6 | 0.826 | 6.87 µM | 1.45 | > 26.4 µM | 2.62 | > 100 µM | 8.45 µM | 1.61 µM | 3.83 µM | 0.248 | 2.56 | 0.598 µM |
| COC(=O)[C@]12CC=C3O[C@@H]4OC5(CCCCC5)O[C@@H]4[C@H]3C1C(=O)C=CC2=O (stereo partly specified) |  | 32.4 µM |  | 25.9 µM |  | 37.9 µM |  | 78.4 |  | 35.2 µM |  | 45.5 µM |  | 44.1 µM | 34.2 µM |  | 32.8 µM |  |  | > 76.8 µM |
| COc1cc(-c2n/c(=C\c3c(O)[nH]c4ccccc34)cc3c2=Nc2ccccc2-3)cc(OC)c1OC | 0.392 | 2.44 µM | 2.16 µM | 5.03 µM | 0.536 | > 100 µM | 0.418 | 68 | 0.552 | > 100 µM | 0.334 | 1.76 µM | 2.53 | > 100 µM | > 100 µM | 0.289 µM | 2.88 µM | 0.692 | 6.43 | > 29.1 µM |
| CO/N=C(/COc1c(-c2ccccc2)oc2ccccc2c1=O)c1ccc(F)cc1 | 39.3 | > 100 µM | > 100 µM | > 100 µM | 27.3 | 67.8 µM | 30.2 | > 100 | 69.9 | > 100 µM |  |  | 53 | > 100 µM | > 100 µM | > 100 µM | > 100 µM | 22 | > 100 | > 100 µM |
| COc1cc2c3c(n(C)c(=O)c2cc1OC)-c1cc2c(cc1/C3=C/[C@H](N)CCCCN)OCO2 | 0.564 | 2.24 µM | 13.4 µM | > 100 µM | 1.34 | 11.6 µM | 2.52 | 17.4 | 0.63 | 2.37 µM | 0.196 | 1.62 µM | 2.27 | 23.4 µM | 11.2 µM | 1.49 µM | 7.64 µM | 0.123 | 1.89 | > 100 µM |
| CO/C(=N\N=C\c1cccc(C(F)(F)F)c1)c1ccncc1 |  | > 100 µM | 2.45 µM | 7.77 µM and 18 µM | 13.2 | > 100 µM |  | 38.7 | 10.2 | > 100 µM |  | 48.8 µM | 17.4 | > 100 µM | > 100 µM |  | 32.4 µM | 3.33 |  | 46.3 µM |
| Oc1cc(Cl)ccc1Cc1ccc(Cl)cc1O | 4.95 | 17.1 µM | 9.67 µM | > 100 µM | 11.7 | 31.7 µM | 7.2 | 32.8 | 5.84 | 18.2 µM | 7 | 19.4 µM | 15.1 | 48.8 µM | 20.7 µM | 4.48 µM | 15.8 µM | 10.5 | 8.26 | > 100 µM |
| COc1ccc(C(=O)CC(c2ccc(OC)c(OC)c2)c2c(O)c3ccccc3oc2=O)cc1OC (stereo unspecified) |  | > 100 µM |  | > 100 µM |  | > 100 µM |  | > 100 |  | > 100 µM |  | > 100 µM |  | > 100 µM | > 100 µM |  | > 100 µM |  |  | > 100 µM |
| CCOC(=O)/C(=C\c1ccc(F)cc1)C(C)=O |  | 91.8 µM |  | 53.2 µM |  | > 100 µM |  | > 100 |  | 36.7 µM |  | 97.4 µM |  | 94.6 µM |  |  | 47.1 µM |  |  | 64 µM |
